Measurements: the NIST ThermoML archive (doi:10.1021/acs.jced.5b00845)

Experiment: mn = molality of the nth substance listed, in mol/kg
Conditions: 100 kPa, Liquid, Capillary tube (Ostwald / Ubbelohde) method

OC[C@H]1O[C@@](CO)(O[C@H]2O[C@H](CO)[C@@H](O)[C@H](O)[C@H]2O)[C@@H](O[C@H]2O[C@H](CO)[C@@H](O)[C@H](O)[C@H]2O)[C@@H]1O + O
viscosity [mPa·s]
Conditions | m1 = 0.06211 | m1 = 0.07242 | m1 = 0.08043 | m1 = 0.09028 | m1 = 0.1045 | m1 = 0.1256 | m1 = 0.1344 | m1 = 0.1457
288.15 K | 1.237 | 1.253 | 1.266 | 1.281 | 1.303 | 1.335 | 1.348 | 1.365
298.15 K | 0.965 | 0.977 | 0.987 | 0.998 | 1.015 | 1.039 | 1.049 | 1.061
308.15 K | 0.777 | 0.786 | 0.793 | 0.802 | 0.815 | 0.833 | 0.841 | 0.851
318.15 K | 0.642 | 0.65 | 0.655 | 0.663 | 0.673 | 0.687 | 0.694 | 0.701

O=CC[C@H](O)[C@H](O)CO [2-deoxy-D-erythropentose] + O
viscosity [mPa·s]
Conditions | m1 = 0.05709 | m1 = 0.07583 | m1 = 0.09188 | m1 = 0.09812 | m1 = 0.1124 | m1 = 0.1366 | m1 = 0.1466
288.15 K | 1.163 | 1.172 | 1.179 | 1.181 | 1.188 | 1.198 | 1.202
298.15 K | 0.909 | 0.915 | 0.92 | 0.922 | 0.927 | 0.935 | 0.938
308.15 K | 0.734 | 0.738 | 0.742 | 0.744 | 0.747 | 0.753 | 0.755
318.15 K | 0.607 | 0.611 | 0.614 | 0.615 | 0.618 | 0.623 | 0.624

OC[C@H]1OC(O)C[C@@H](O)[C@@H]1O (stereo partly drawn) [2-deoxy-D-glucose] + O
viscosity [mPa·s]
Conditions | m1 = 0.04241 | m1 = 0.05017 | m1 = 0.05842 | m1 = 0.08671 | m1 = 0.09745 | m1 = 0.1223 | m1 = 0.141
288.15 K | 1.16 | 1.164 | 1.168 | 1.182 | 1.188 | 1.2 | 1.21
298.15 K | 0.907 | 0.909 | 0.913 | 0.923 | 0.927 | 0.936 | 0.943
308.15 K | 0.732 | 0.734 | 0.736 | 0.744 | 0.747 | 0.754 | 0.76
318.15 K | 0.606 | 0.608 | 0.609 | 0.616 | 0.618 | 0.624 | 0.628

O=C[C@H](O)[C@@H](O)[C@H](O[C@@H]1O[C@H](CO)[C@H](O)[C@H](O)[C@H]1O)[C@H](O)CO [4-O-β-D-galactopyranosyl-D-glucose] + O
viscosity [mPa·s]
Conditions | m1 = 0.04915 | m1 = 0.0521 | m1 = 0.06429 | m1 = 0.07299 | m1 = 0.09149 | m1 = 0.1001 | m1 = 0.1211 | m1 = 0.1528
288.15 K | 1.198 | 1.202 | 1.216 | 1.227 | 1.249 | 1.259 | 1.284 | 1.321
298.15 K | 0.936 | 0.938 | 0.949 | 0.957 | 0.974 | 0.982 | 1 | 1.028
308.15 K | 0.755 | 0.757 | 0.766 | 0.772 | 0.785 | 0.791 | 0.806 | 0.828
318.15 K | 0.625 | 0.626 | 0.633 | 0.638 | 0.649 | 0.654 | 0.665 | 0.683

C[C@@H]1O[C@@H](O)[C@H](O)[C@H](O)[C@H]1O [6-deoxy-α-L-mannopyranose] + O
viscosity [mPa·s]
Conditions | m1 = 0.04655 | m1 = 0.05637 | m1 = 0.08317 | m1 = 0.0856 | m1 = 0.1109 | m1 = 0.1248 | m1 = 0.1471
288.15 K | 1.165 | 1.171 | 1.186 | 1.187 | 1.202 | 1.21 | 1.222
298.15 K | 0.91 | 0.914 | 0.925 | 0.926 | 0.937 | 0.943 | 0.952
308.15 K | 0.734 | 0.737 | 0.746 | 0.747 | 0.755 | 0.759 | 0.766
318.15 K | 0.608 | 0.61 | 0.617 | 0.618 | 0.623 | 0.627 | 0.632

OC[C@H]1O[C@@H](O[C@H]2[C@H](O)[C@@H](O)[C@H](O)O[C@@H]2CO)[C@H](O)[C@@H](O)[C@@H]1O [D-cellobiose] + O
viscosity [mPa·s]
Conditions | m1 = 0.0502 | m1 = 0.06216 | m1 = 0.07229 | m1 = 0.08229 | m1 = 0.09269 | m1 = 0.1031 | m1 = 0.1292 | m1 = 0.152
288.15 K | 1.19 | 1.202 | 1.212 | 1.222 | 1.233 | 1.243 | 1.269 | 1.291
298.15 K | 0.929 | 0.938 | 0.946 | 0.953 | 0.961 | 0.969 | 0.988 | 1.005
308.15 K | 0.749 | 0.756 | 0.762 | 0.768 | 0.774 | 0.78 | 0.795 | 0.808
318.15 K | 0.62 | 0.625 | 0.63 | 0.635 | 0.64 | 0.644 | 0.656 | 0.666

O=C[C@H](O)[C@@H](O)[C@H](O)[C@H](O)CO [D-glucose] + O
viscosity [mPa·s]
Conditions | m1 = 0.05335 | m1 = 0.06616 | m1 = 0.08424 | m1 = 0.1038 | m1 = 0.1142 | m1 = 0.1323
288.15 K | 1.167 | 1.175 | 1.185 | 1.196 | 1.202 | 1.211
298.15 K | 0.912 | 0.918 | 0.924 | 0.932 | 0.936 | 0.943
308.15 K | 0.736 | 0.74 | 0.744 | 0.75 | 0.754 | 0.759
318.15 K | 0.609 | 0.612 | 0.616 | 0.621 | 0.623 | 0.628

O=C[C@@H](O)[C@@H](O)[C@H](O)[C@H](O)CO [D-mannose] + O
viscosity [mPa·s]
Conditions | m1 = 0.0537 | m1 = 0.07266 | m1 = 0.08053 | m1 = 0.08978 | m1 = 0.1058 | m1 = 0.1176
288.15 K | 1.169 | 1.179 | 1.184 | 1.189 | 1.199 | 1.206
298.15 K | 0.912 | 0.92 | 0.924 | 0.928 | 0.934 | 0.939
308.15 K | 0.736 | 0.741 | 0.744 | 0.747 | 0.753 | 0.756
318.15 K | 0.609 | 0.614 | 0.616 | 0.618 | 0.622 | 0.625

OC[C@H]1O[C@H](OC[C@H]2O[C@H](O[C@]3(CO)O[C@H](CO)[C@@H](O)[C@@H]3O)[C@H](O)[C@@H](O)[C@@H]2O)[C@H](O)[C@@H](O)[C@H]1O [D-raffinose] + O
viscosity [mPa·s]
Conditions | m1 = 0.0515 | m1 = 0.06262 | m1 = 0.08002 | m1 = 0.09691 | m1 = 0.1085 | m1 = 0.1133 | m1 = 0.1273 | m1 = 0.1387
288.15 K | 1.227 | 1.246 | 1.275 | 1.303 | 1.322 | 1.33 | 1.353 | 1.371
298.15 K | 0.957 | 0.971 | 0.993 | 1.014 | 1.028 | 1.034 | 1.051 | 1.065
308.15 K | 0.771 | 0.782 | 0.799 | 0.816 | 0.827 | 0.831 | 0.845 | 0.855
318.15 K | 0.637 | 0.646 | 0.659 | 0.672 | 0.681 | 0.684 | 0.695 | 0.703

O=C[C@H](O)[C@H](O)[C@H](O)CO [D-ribose] + O
viscosity [mPa·s]
Conditions | m1 = 0.05682 | m1 = 0.06586 | m1 = 0.07814 | m1 = 0.09455 | m1 = 0.1051 | m1 = 0.1285
288.15 K | 1.159 | 1.163 | 1.168 | 1.174 | 1.178 | 1.187
298.15 K | 0.906 | 0.909 | 0.912 | 0.917 | 0.919 | 0.926
308.15 K | 0.731 | 0.733 | 0.736 | 0.739 | 0.741 | 0.746
318.15 K | 0.605 | 0.607 | 0.609 | 0.612 | 0.614 | 0.618

OC[C@H]1O[C@@](CO)(O[C@H]2O[C@H](CO)[C@@H](O)[C@H](O)[C@H]2O)[C@@H](O)[C@@H]1O [D-sucrose] + O
viscosity [mPa·s]
Conditions | m1 = 0.05768 | m1 = 0.06994 | m1 = 0.07682 | m1 = 0.08384 | m1 = 0.09221 | m1 = 0.1103 | m1 = 0.1237 | m1 = 0.1437
288.15 K | 1.205 | 1.219 | 1.227 | 1.235 | 1.244 | 1.265 | 1.28 | 1.302
298.15 K | 0.941 | 0.951 | 0.957 | 0.963 | 0.97 | 0.986 | 0.997 | 1.014
308.15 K | 0.758 | 0.766 | 0.771 | 0.776 | 0.781 | 0.793 | 0.802 | 0.815
318.15 K | 0.627 | 0.634 | 0.637 | 0.641 | 0.645 | 0.655 | 0.662 | 0.672

O=C[C@H](O)[C@@H](O)[C@H](O)CO [D-xylose] + O
viscosity [mPa·s]
Conditions | m1 = 0.05317 | m1 = 0.06636 | m1 = 0.07781 | m1 = 0.08585 | m1 = 0.1009 | m1 = 0.1145
288.15 K | 1.159 | 1.165 | 1.169 | 1.173 | 1.179 | 1.185
298.15 K | 0.906 | 0.91 | 0.914 | 0.917 | 0.921 | 0.925
308.15 K | 0.732 | 0.735 | 0.737 | 0.739 | 0.743 | 0.746
318.15 K | 0.606 | 0.608 | 0.61 | 0.612 | 0.614 | 0.618

N.O=P(O)(O)O [ammonium dihydrogen phosphate] + O
viscosity [mPa·s]
Conditions | 288.15 K | 298.15 K | 308.15 K | 318.15 K
m1 = 0.5 | 1.29 | 1.014 | 0.822 | 0.659
m1 = 1 | 1.472 | 1.172 | 0.942 | 0.741
m1 = 1.5 | 1.672 | 1.332 | 1.049 | 0.822
m1 = 2 | 1.831 | 1.463 | 1.161 | 0.908

CO[C@H]1O[C@H](CO)[C@@H](O)[C@H](O)[C@H]1O [methyl-α-D-glucopyranoside] + O
viscosity [mPa·s]
Conditions | m1 = 0.06502 | m1 = 0.07733 | m1 = 0.09597 | m1 = 0.1109 | m1 = 0.1219 | m1 = 0.122 | m1 = 0.1465
288.15 K | 1.174 | 1.181 | 1.191 | 1.2 | 1.207 | 1.206 | 1.219
298.15 K | 0.917 | 0.922 | 0.929 | 0.935 | 0.941 | 0.94 | 0.95
308.15 K | 0.74 | 0.744 | 0.749 | 0.754 | 0.758 | 0.757 | 0.765
318.15 K | 0.612 | 0.615 | 0.619 | 0.623 | 0.625 | 0.626 | 0.631

O=P([O-])(O)O.[K+] [monopotassium phosphate] + O
viscosity [mPa·s]
Conditions | 288.15 K | 298.15 K | 308.15 K | 318.15 K
m1 = 0.25 | 1.236 | 0.972 | 0.777 | 0.633
m1 = 0.5 | 1.301 | 1.025 | 0.815 | 0.666
m1 = 1 | 1.539 | 1.159 | 0.939 | 0.763
m1 = 1.25 | 1.636 | 1.294 | 1.027 | 0.84
